Test systems include MALME-3M melanoma; HOP-92 NSCLC; EKVX NSCLC; MOLT-4 leukemia; BT-549 breast; UACC-62 melanoma; SW-620 colon; KM12 colon; HCT-15 colon; COLO 205 colon.
Common to all, as to assay: growth of human tumour cells (NCI), 48 h

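Where inhibition never reached the appropriate level, the endpoint shown equals the highest concentration tested. Otherwise, values were interpolated linearly from a five-concentration, 48-hour dose response in 96-well plates. GI50: concentration for 50% inhibition of growth. TGI is the concentration that stops growth completely.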

As to `CCN(CC)c1sc(N(CC)CC)c2c1SSSSS2`, the GI50 was 1.59 µM with MALME-3M melanoma; 2.87 µM in the experiment on HOP-92 NSCLC; 1.84 µM in the experiment with EKVX NSCLC; 0.343 µM in the experiment with MOLT-4 leukemia; 2.06 µM in the experiment with BT-549 breast; 0.721 µM in the experiment with UACC-62 melanoma. For the same compound, the GI50 in the experiment with SW-620 colon was 0.132 µM; with KM12 colon, 1.68 µM; in the experiment on HCT-15 colon, 1.24 µM; with COLO 205 colon it was 0.937 µM. For the same compound, the TGI in the experiment on MALME-3M melanoma was 3.45 µM; in the experiment with HOP-92 NSCLC it was 5.92 µM; in the experiment on EKVX NSCLC, 5.54 µM; in the experiment with MOLT-4 leukemia it was greater than 100 µM; in the experiment with BT-549 breast, 4.8 µM; in the experiment with UACC-62 melanoma, 1.87 µM. Also, the TGI is 1.14 µM in the experiment on SW-620 colon, 3.55 µM in the experiment on KM12 colon and greater than 34.2 µM in the experiment on HCT-15 colon.
As for `COc1cc(OC)c(/C=C/C(=O)c2c(OC)cccc2OC)c(OC)c1`, the GI50 with MALME-3M melanoma was 0.45 µM; with HOP-92 NSCLC it was 0.222 µM; in the experiment on EKVX NSCLC, 4.03 µM; in the experiment with MOLT-4 leukemia, 1.17 µM; with BT-549 breast, 0.3 µM; in the experiment with UACC-62 melanoma, 0.362 µM. Moreover, the GI50 in the experiment with SW-620 colon is 0.375 µM; with KM12 colon it was 0.59 µM; with HCT-15 colon, 0.482 µM; with COLO 205 colon, 0.619 µM. Further, the TGI in the experiment on MALME-3M melanoma is greater than 100 µM; with EKVX NSCLC it was greater than 100 µM; in the experiment with MOLT-4 leukemia, greater than 100 µM; in the experiment with BT-549 breast, 1.84 µM; in the experiment on UACC-62 melanoma, 3.06 µM; with SW-620 colon it was greater than 32.6 µM. In addition, the TGI in the experiment with KM12 colon was greater than 26 µM; with HCT-15 colon it was greater than 100 µM.
`CCN(CC)CCCC(C)Nc1c(C)cnc2cc(Cl)c(C)cc12` (configuration not stated): the GI50 is 14.9 µM in the experiment on MALME-3M melanoma; 0.288 µM in the experiment with HOP-92 NSCLC; 15 µM in the experiment with EKVX NSCLC; 0.845 µM with MOLT-4 leukemia; 12.9 µM with BT-549 breast; 3.44 µM in the experiment with UACC-62 melanoma. Further, the GI50 is 10.6 µM with SW-620 colon, 13.8 µM in the experiment with KM12 colon, 11.7 µM in the experiment on HCT-15 colon and 3.96 µM in the experiment with COLO 205 colon. The TGI worked out at 29.7 µM in the experiment on MALME-3M melanoma; 3.87 µM in the experiment on HOP-92 NSCLC; 38.7 µM with EKVX NSCLC; 8.27 µM in the experiment on MOLT-4 leukemia; 28.7 µM in the experiment with BT-549 breast; 11.1 µM with UACC-62 melanoma. Also, the TGI in the experiment with SW-620 colon was 25.7 µM; in the experiment on KM12 colon, 28.6 µM; in the experiment on HCT-15 colon, greater than 68 µM; in the experiment on COLO 205 colon it was greater than 38.6 µM.
Take `CN/N=C(/CCN1CCCC1)CC(c1ccccc1)c1c(O)c2ccccc2oc1=O` (configuration not stated): the TGI with MALME-3M melanoma was greater than 100 µM; with HOP-92 NSCLC it was 41.8 µM; with EKVX NSCLC it was greater than 100 µM; in the experiment with MOLT-4 leukemia, greater than 100 µM; in the experiment on BT-549 breast, greater than 100 µM; with UACC-62 melanoma, greater than 100 µM. The TGI in the experiment with SW-620 colon is greater than 100 µM; with KM12 colon, greater than 100 µM; with HCT-15 colon it was greater than 100 µM; with COLO 205 colon, greater than 91.4 µM.
Turning to `O=C(Nc1ccc(Cl)cc1)c1cc(-c2ccc(F)cc2)c2sc(=O)[nH]c2n1`, the GI50 is 1.7 µM with MALME-3M melanoma; 0.204 µM in the experiment on HOP-92 NSCLC; 1.64 µM with EKVX NSCLC; 0.721 µM in the experiment with MOLT-4 leukemia; 1.73 µM in the experiment with BT-549 breast; 0.366 µM in the experiment with UACC-62 melanoma. Besides, the GI50 is 3.01 µM in the experiment with SW-620 colon, 1.81 µM in the experiment on KM12 colon, 1.73 µM with HCT-15 colon and 1.76 µM in the experiment on COLO 205 colon. The TGI in the experiment on MALME-3M melanoma stood at 6.8 µM; in the experiment with HOP-92 NSCLC, 0.94 µM; in the experiment on EKVX NSCLC it was 6.11 µM; in the experiment with MOLT-4 leukemia, 4.02 µM; in the experiment on BT-549 breast, 6.88 µM; in the experiment on UACC-62 melanoma it was 2.32 µM. The TGI with SW-620 colon is 16.2 µM; in the experiment on KM12 colon it was 6.04 µM; in the experiment with HCT-15 colon, 10.1 µM; with COLO 205 colon, 3.82 µM.
Consider `CC1CN1CC(O)C(O)CN1CC1C` (configuration not stated), for which the GI50 in the experiment on MALME-3M melanoma was 2.13 µM; in the experiment with HOP-92 NSCLC, 6.12 µM; in the experiment on EKVX NSCLC it was 13.8 µM; in the experiment with MOLT-4 leukemia, 0.234 µM; in the experiment on BT-549 breast, 6.43 µM; in the experiment with UACC-62 melanoma it was 2.99 µM. Moreover, the GI50 with SW-620 colon is 2.47 µM; in the experiment with KM12 colon it was 7.37 µM; with HCT-15 colon it was 4 µM; with COLO 205 colon, 5.45 µM. In addition, the TGI was 13.7 µM in the experiment on MALME-3M melanoma; greater than 28.6 µM with HOP-92 NSCLC; greater than 80.6 µM in the experiment on EKVX NSCLC; 3.15 µM with MOLT-4 leukemia; 87.1 µM in the experiment with BT-549 breast; greater than 53.2 µM in the experiment on UACC-62 melanoma. The TGI with SW-620 colon was greater than 62 µM; in the experiment on KM12 colon it was 23 µM; in the experiment on HCT-15 colon, 46 µM; with COLO 205 colon, greater than 38.5 µM.
Turning to `COc1ccc2c(c1)C(=O)c1c-2n(CCCn2ccnc2)c(=O)c2ccccc12`, the GI50 with MALME-3M melanoma is 1.25 µM; in the experiment with HOP-92 NSCLC, 1.03 µM; with EKVX NSCLC, 1.51 µM; in the experiment on MOLT-4 leukemia, 0.136 µM; with BT-549 breast, 0.478 µM; in the experiment on UACC-62 melanoma, 0.403 µM. The GI50 in the experiment on SW-620 colon is 0.247 µM; in the experiment on KM12 colon, 0.729 µM; with HCT-15 colon it was 1.24 µM; with COLO 205 colon, 0.579 µM. Besides, the TGI in the experiment on MALME-3M melanoma was 6.44 µM; in the experiment on HOP-92 NSCLC it was greater than 23.2 µM; with EKVX NSCLC it was 11.9 µM; in the experiment on MOLT-4 leukemia it was greater than 100 µM; with BT-549 breast, 3.87 µM; with UACC-62 melanoma, 1.86 µM. The TGI in the experiment on SW-620 colon came to 7.59 µM; in the experiment on KM12 colon it was 3.78 µM; in the experiment with HCT-15 colon, 7.72 µM; with COLO 205 colon, 14.3 µM.
`COc1ccc(C(C)c2cc3c(cc2OC)OCO3)cc1` (configuration not stated): the TGI in the experiment on MALME-3M melanoma was 52.2 µM; in the experiment with HOP-92 NSCLC, 36 µM; in the experiment with EKVX NSCLC, greater than 100 µM; in the experiment with MOLT-4 leukemia, greater than 60.6 µM; in the experiment on BT-549 breast, greater than 100 µM; in the experiment with UACC-62 melanoma, greater than 69.2 µM. Moreover, the TGI in the experiment on SW-620 colon was greater than 100 µM; in the experiment on KM12 colon, greater than 41 µM; with HCT-15 colon, 13.5 µM; in the experiment with COLO 205 colon, 0.927 µM.
